Read-outs that look alike come from different tables or passages of the source.
Legend:
Assay type in all cases: cell-based
Listeria = tested on: Listeria
[1] = tested on: stressed bacterial cells (Listeria); conditions: for effect on infection rate or enzymatic activity: antifungal agent added to base medium
Experimental: Media were screened for the ability to support high infection rate and high signal intensity following infection with phage encoding a luciferase marker. Bacterial cells were purposefully stressed by way of drying for 18 hours on a stainless steel table, followed by re-suspension in brain-heart infusion medium (BHI) for 30 minutes. The recovered cells were then infected with phage containing a luciferase marker for 6 hours followed by testing of the enzymatic activity using unpurified phage lysate and NanoLuc reagent.
BHI and TSB media were further titrated to assess whether there was an increase in RLU at different concentrations of base media.
Select components were added to the media in order to remedy known stressors to cells, and to reduce the possibility for other chemicals interfering with the test results. To this end, lithium chloride was added at defined concentrations to the selected 1×TSB base medium, followed by infecting the cells with a luciferase containing phage, and lastly by assaying the RLU detectable as a function of the percentage of lithium chloride added to the media. Lithium chloride was selected as an additive in order to overcome, prevent or limit growth of competing biologicals. […] (See FIG. 11).
Components selected to overcome cell starvation and oxidative stress, glucose and yeast extract, respectively, were titrated in 1×TSB, followed by infection of the bacteria with luciferase containing phage, and lastly by assaying the RLU detectable as a function of the percentage of either glucose or yeast extract.
Antifungal agents were also added to the base medium and tested in order to determine whether there is a decrease in RLU activity, either as a result of loss of enzyme activity or because of reduced infection ability. The anti-fungal agents tested included cycloheximide solution in DMSO.
The effect of divalent cations added to Formulation-1 was assessed. MgSO4 or CaCl2 was added to Formulation-1, followed by infection of bacteria with luciferase encoding phage, and assessment of resultant RLU.
The resultant formulation that incorporates all of the components of Formulation-1A, with the addition of HEPES, is herein referred to as Formulation-2 or as NIB-12.

[2] = tested on: bacteria exposed to luciferase encoding phage; assay: Phage infection and enzyme activity across media formulations (RLU); conditions: comparison across media formulations and additives
Experimental: A systematic comparison of RLU values as a function of additive component was performed on various media formulations. (See FIG. 15). The effects of different additives on both enzymatic activity, as well as infection ability, was measured and compared by way of assessing RLU across the different conditions.

1893 cell-type = assay: Sanitizer neutralization assay, phage infection step; conditions: added to NIB-14; 2 mM sodium metabisulfite or 0.05% sodium thiosulfate
Experimental: Following the 30 minute incubation period, the luciferase marker containing phage was added in BHI medium, and the samples were further allowed to incubate for an additional 3 hours at 30° C. The enzyme was then detected by the addition of the NanoGlo luciferin substrate and luminescence measurement. […] Another variant of this assay involved the direct incubation of the sterilization chemical with the NanoGlo luciferin substrate in the absence of either cells, phage or enzyme.

[3] = tested on: bacterial cells (Listeria); assay: RLU after phage infection in the presence of increasing quaternary ammonium salts; conditions: additive in Listeria Growth Broth
Source text: Bacterial cells were exposed to luciferase encoding phage in the following buffers, Listeria growth broth, Listeria growth broth with TWEEN®-80, or to Listeria growth broth with the addition of both TWEEN®-80 and lecithin. The RLU values are shown on the y-axis.
The addition of TWEEN®-80, either alone or in combination with lecithin, to the Formulation-2 (NIB-12) medium allowed for protection of the samples from interference by quaternary ammonium salts. (See FIG. 14). […] In this case, there was a sustained, detectable RLU in the presence of up to 62.5 ppm quaternary ammonium salts. The amount of resistance to quaternary ammonium salts was further increased through the addition of both lecithin and TWEEN®-80. With the addition of both reagents to Listeria Growth Broth, there was detectable RLU up to 125 ppm quaternary ammonium salts. Another preferred embodiment of the media contains 1.5% of TWEEN®-80 and 0.22% of lecithin.

[4] = component of aqueous solution (infection buffer)

| Compound | Effect on Listeria Detection (Listeria; [4]) | further results |
| --- | --- | --- |
| O=C(O)CCC(=O)C(=O)O [Alpha-ketoglutarate] | negative | – |
| [Ca+2].[Cl-].[Cl-] [Calcium chloride] | – | Effect on Listeria Detection (Listeria): neutral |
| CC(C)(O/N=C(\C(=O)N[C@@H]1C(=O)N2C(C(=O)[O-])=C(C[n+]3ccccc3)CS[C@H]12)c1csc(N)n1)C(=O)O [Ceftazidime, reference compound] | positive | – |
| C[C@@H]1C[C@@H]([C@H](O)CC2CC(=O)NC(=O)C2)C(=O)[C@@H](C)C1 [Cycloheximide] | neutral | effect on infection rate or enzymatic activity [1]: Neither cycloheximide nor DMSO resulted in a decrease |
| C[S+](C)[O-] [DMSO] | – | effect on infection rate or enzymatic activity [1]: Neither cycloheximide nor DMSO resulted in a decrease |
| O=S(=O)([O-])[O-].[Fe+2] [Ferrous sulphate] | negative | – |
| OCC(O)CO [Glycerol] | neutral | – |
| O=S(=O)(O)CCN1CCN(CCO)CC1 [HEPES, pH 7.4, HEPES] | positive | ideal HEPES concentration for high RLU activity ([1]; titrated into Formulation-1A, 3 hour and 6 hour time points): 20 mM |
| [Cl-].[Li+] [Lithium chloride] | optimized | additive concentration giving highest RLU / selected on RLU levels ([1]; titrated in 1×TSB, 3 hour and 6 hour assay points): 0.25% |
| O=S(=O)(O)CCCN1CCOCC1 [MOPS, pH 7.2, MOPS] | positive | – |
| O=S(=O)([O-])[O-].[Mg+2] [Magnesium sulphate] | positive | RLU activity on addition of divalent cation ([1]; added to Formulation-1, in comparison to CaCl2): marked increase; infection ability (RLU) [2]: large impact in increasing infection ability |
| CO[C@@]1(NC(=O)C(C(=O)O)c2ccc(O)cc2)C(=O)N2C(C(=O)O)=C(CSc3nnnn3C)CO[C@@H]21 (stereo partly drawn) [Moxalactam, reference compound] | neutral | – |
| CCn1cc(C(=O)O)c(=O)c2ccc(C)nc21 [Nalidixic acid, reference compound] | positive | – |
| C[N+](C)(C)CCOP(=O)(O)O.[Cl-] [Phosphocholine chloride] | negative | – |
| O=C([O-])CC(O)(CC(=O)[O-])C(=O)[O-].[Na+].[Na+].[Na+] [Sodium citrate] | negative | – |
| N[C@@H](CCC(=O)[O-])C(=O)[O-].[Na+].[Na+] [Sodium glutamate] | neutral | – |

| Compound | Effect on Listeria Detection (Listeria; [4]) | further results |
| --- | --- | --- |
| O=C([O-])CC(=O)[O-].[Na+].[Na+] [Sodium malonate] | negative | – |
| O=S([O-])S(=O)(=O)[O-].[Na+].[Na+] [Sodium metabisulfite] | positive | effect of oxygen scavenger on oxidizing effect of peroxide (1893 cell-type): reduced the oxidizing effect of peroxide |
| CC(=O)C(=O)[O-].[Na+] [Sodium pyruvate] | positive | RLU activity on addition of pyruvate ([1]; HEPES titration experiment): further increased RLU activity; infection ability (RLU) [2]: large impact in increasing infection ability |
| O=C([O-])CS.[Na+] [Sodium thioglycollate] | negative | – |
| O=S([O-])([O-])=S.[Na+].[Na+] [Sodium thiosulfate] | – | Effect on Listeria Detection (Listeria): negative; effect of oxygen scavenger on oxidizing effect of peroxide (1893 cell-type): reduced the oxidizing effect of peroxide |
| OC[C@H]1O[C@@](CO)(O[C@H]2O[C@H](CO)[C@@H](O)[C@H](O)[C@H]2O)[C@@H](O)[C@@H]1O [Sucrose] | neutral | – |
| Cc1ncc(C[n+]2csc(CCO)c2C)c(N)n1 [Thiamine] | neutral | – |
| Acriflavin | negative | – |
| Ferric ammonium citrate | neutral | – |
| Ferric citrate | neutral | – |
| Ferric sulfate | neutral | – |
| O-octophosphorylcholine | negative | – |
| Polysorbate 20 | negative | – |
| Polysorbate 80 | positive | quaternary ammonium salts concentration up to which RLU is detectable [3]: up to 62.5 ppm; infection ability (RLU) [2]: large impact in increasing infection ability |
| Triton X-100 | negative | – |

— US10039795B2, “Codon optimized recombinant phage and methods of using same” (priority 2014, dated 2018)
